Data published in paper PMC5423977, “Safety, pharmacokinetics, and pharmacodynamics of BMS-986142, a novel reversible BTK inhibitor, in healthy participants” (European Journal of Clinical Pharmacology, 2017).

Test: Safety (adverse events), Study 2 MTX-DDI in healthy male participants
[1] = BMS-986142 350 mg QD (Days 6 and 7), n = 12
[2] = BMS-986142 350 mg QD (Days 8 to 10) + MTX 7.5 mg (Day 8) + leucovorin 15 mg (Day 9), n = 12

Protocol: This portion of the study was designed to assess the effect of BMS-986142 on the PK of MTX since MTX is used as a background therapy in RA patients and all patients will receive MTX when the phase 2 study of BMS-986142 is conducted. Eligible participants were confined to the clinical facility for the duration of treatment (15 days). Healthy participants were administered a single oral dose of 7.5 mg MTX on day 1. On day 2, participants received leucovorin (a single oral dose of 15 mg) as a preventive measure for MTX toxicity. After a washout period (days 2–5), BMS-986142 was administered on days 6–10 in 350-mg QD doses. A concomitant dose of MTX (7.5 mg) was administered on day 8, followed by leucovorin (15 mg) on day 9 (Online Resource 2). BMS-986142 was administered with 240 mL of water, and a minimum amount of additional water was permitted to allow dosing of all medications. Only healthy male participants (ages ≥18 to ≤50 years) were eligible for the MTX-DDI assessment in study 2. Other key inclusion and exclusion criteria were identical to those in study 1.
Participants were monitored for adverse events (AEs) throughout the study. Clinical laboratory tests, vital sign measurements, 12-lead ECGs, and physical examinations were performed at selected times throughout the dosing interval. Safety data was recorded in the participants’ medical records, and assessments were performed for emergent AEs or serious AEs (SAEs). For all AEs, causal relationship to the study drug was determined by an investigator.

Compound: Cc1c(-c2c(F)cc(C(N)=O)c3[nH]c4c(c23)CC[C@H](C(C)(C)O)C4)cccc1-n1c(=O)c2cccc(F)c2n(C)c1=O [BMS-986142, 6-fluoro-5-(R)-(3-(S)-(8-fluoro-1-methyl-2,4-dioxo-1,2-dihydroquinazolin-3(4H)-yl)-2-methylphenyl)-2-(S)-(2-hydroxypropan-2-yl)-2,3,4,9-tetrahydro-1H-carbazole-8-carboxamide]
- AE SOC: Gastrointestinal Disorders [1]: 0 n (%)
- AE SOC: General disorders and administration site conditions [1]: 0 n (%)
- AE SOC: Infections and infestations [1]: 0 n (%)
- AE SOC: Injury, poisoning and procedural complications [1]: 0 n (%)
- AE SOC: Nervous system disorders [1]: 1 (8.3) n (%)
- AE SOC: Psychiatric disorders [1]: 1 (8.3) n (%)
- AE: Anxiety [1]: 0 n (%)
- AE: Arthropod Bite [1]: 0 n (%)
- AE: Asthenia [1]: 0 n (%)
- AE: Dizziness [1]: 0 n (%)
- AE: Fatigue [1]: 0 n (%)
- AE: Headache [1]: 1 (8.3) n (%)
- AE: Nausea [1]: 0 n (%)
- AE: Sleep Disorder [1]: 1 (8.3) n (%)
- AE: Tremor [1]: 0 n (%)
- AE: Viral Infection [1]: 0 n (%)
- Total participants with an event [1]: 2 (16.7) n (%)
- AE SOC: Gastrointestinal Disorders [2]: 2 (16.7) n (%)
- AE SOC: General disorders and administration site conditions [2]: 1 (8.3) n (%)
- AE SOC: Infections and infestations [2]: 1 (8.3) n (%)
- AE SOC: Injury, poisoning and procedural complications [2]: 1 (8.3) n (%)
- AE SOC: Nervous system disorders [2]: 2 (16.7) n (%)
- AE SOC: Psychiatric disorders [2]: 1 (8.3) n (%)
- AE: Anxiety [2]: 1 (8.3) n (%)
- AE: Arthropod Bite [2]: 1 (8.3) n (%)
- AE: Asthenia [2]: 0 n (%)
- AE: Dizziness [2]: 2 (16.7) n (%)
- AE: Fatigue [2]: 1 (8.3) n (%)
- AE: Headache [2]: 1 (8.3) n (%)
- AE: Nausea [2]: 2 (16.7) n (%)
- AE: Sleep Disorder [2]: 0 n (%)
- AE: Tremor [2]: 0 n (%)
- AE: Viral Infection [2]: 1 (8.3) n (%)
- Total participants with an event [2]: 4 (33.3) n (%)
- Number of AEs reported (Study 2, BMS-986142 on days 6 and 7): 2 AEs
- Number of AEs reported (Study 2, concomitant MTX and BMS-986142 (days 8–10)): 9 AEs
- AE: Cough (Study 2, n = 12): 0 n (%)
- AE: Diarrhea (Study 2, n = 12): 0 n (%)
- AE: Dizziness (Study 2, n = 12): 2 (16.7) n (%)
- AE: Headache/tension headache (Study 2, n = 12): 1 (8.3) n (%)
- AE: Nausea (Study 2, n = 12): 2 (16.7) n (%)
- AE: Thermal burns (Study 2, n = 12): 0 n (%)
- AE: Upper respiratory tract infection (Study 2, n = 12): 0 n (%)
- Subjects with AEs (Study 2, n = 12): 4 (33.3) n (%)
